Tests used:
[1] = Transferability into brain and clearance; assay type: in vivo, male Wistar rats; conditions: intravenous injection, rats
Procedure: Using Compound 1 (Example 10) and Compound 2 (Example 11), a time course change of radioactive accumulation in brain of male Wistar rats (7-week old) was measured.
A diethyl ether solution of Compound 1 (Example 10) prepared in Example 3, a diethyl ether solution of Compound 2 (Example 11) prepared in Example 6 and a diethyl ether solution of [^123I]-IMPY (Comparative Example 5) prepared in Reference Example 1 were each diluted with 10 mg/mL ascorbic acid-containing physiological saline solution to adjust to a radioactive concentration of 8-12 MBq/mL. 0.05 mL each of the prepared sample solutions was injected under thiopental anesthesia into the tail vein of the rats. The rats were sacrificed by bleeding from abdominal artery, and brains were removed and subjected to measurement of mass of brains and further subjected to measurement of radioactivity (hereinafter referred to as A in this Example) with a single channel analyzer (detector type: SP-20 manufactured by OHYO KOKEN KOGYO Co., Ltd.) 2, 5, 30 and 60 minutes after the injection. Further, the radioactivity level of the rest of the whole body was measured in the same manner as above (hereinafter referred to as B in this Example). Using these measurement results, radioactive distribution per unit weight of brain (% ID/g) at the respective time points were calculated in accordance with the following formula (3).
Three animals were used for the experiment at the respective time points.
Using Compound 4 and Compound 6, a time course change of radioactive accumulation in brain of male Wistar rats (7-week old) was measured.
Compound 4 (Example 22), Compound 6 (Example 23) and a solution of [^123I]-IMPY (Comparative Example 8) prepared above in Reference Example 1 were each diluted with a 10 mg/mL ascorbic acid-containing physiological saline solution to prepare solutions (20-31 MBq/mL in radioactive concentration). 0.05 mL each of the prepared sample solutions was injected under thiopental anesthesia into the tail vein of the respective Wistar rat (7-week old). The rats were sacrificed by bleeding from abdominal artery, and brains were removed and subjected to measurement of mass of brains and further subjected to measurement of radioactivity (hereinafter referred to as A in this Example) with a single channel analyzer (detector type: SP-20 manufactured by OHYO KOKEN KOGYO Co., Ltd.) 2, 5, 30 and 60 minutes after the injection. Further, the radioactivity level of the rest of the whole body was measured in the same manner as above (hereinafter referred to as B in this Example). Using these measurement results, radioactive distribution per unit weight of brain (% ID/g) at the respective time points were calculated in accordance with the following formula (5).

[2] = biological target: T1, amylin amyloid (Homo sapiens, UniProt P10997); test: In vitro binding of labeled compound to amylin amyloid (glass fiber filter); conditions: amylin amyloid 0.8 μg/mL, 22° C., 3 hours
T1 construct: Amylin (human) (manufactured by Wako); purchased Wako
T1 sequence (P10997 34-70 limits assumed): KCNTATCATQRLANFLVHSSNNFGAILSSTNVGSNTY
Procedure: (1) Using methods described in Examples 29 and 30, a 1 mg/mL suspension of aggregated amylin was prepared (hereinafter referred to as amyloid suspension in this Example) was prepared.
(§1) (8) A solution of Compound 1 which was synthesized by the method above in Example 3 was prepared (radioactivity of 500 MBq/mL), and diluted with a 0.1% bovine serum albumin-containing phosphate buffer (pH 7.4) to prepare a solution of 1.2-112.9 pM in terms of the total amount of 2-[4′-(2″-hydroxyethoxy)phenyl]-6-iodoimidazo[1,2-a]pyridine. […]
(§2) (11) The glass fiber filter used for the filtration of the mixture was washed with a 0.1% bovine serum albumin-containing phosphate buffer (0.2 mL×5), and radioactivity of the glass fiber filter was measured with an autowell gamma system (manufactured by Aloka, Type: ARC-7001).
(§3) (12) From the measurement results of (11), relation between the amount of Compound 1 binding to amyloid and addition amount of amyloid was evaluated. For a non-specific binding, it was determined from a sample in which no amyloid suspension was added above in (9) (Example 36). […]

[3] = biological target: T2, β2-microglobulin amyloid (Homo sapiens, UniProt P61769); test: In vitro binding of labeled compound to β2-m-amyloid (glass fiber filter); conditions: β2-m-amyloid 0.8 μg/mL, 22° C., 3 hours
T2 construct: purchased Oriental Yeast Co., ltd
Procedure: β2-microglobulin with cross -sheet structure was prepared by the following procedures (5) and (6) which was the method described in the known literature (Ohhashi, Y. et al., Journal of Biological Chemistry. 280, p. 32843-32848 (2005)) to which a little modification was made. […]
as §1, §2, §3

Radioactive distribution per unit weight of brain ([1]; After 2 min., Table 5) [% ID/g]	Radioactive distribution per unit weight of brain ([1]; After 5 min., Table 5) [% ID/g]	Radioactive distribution per unit weight of brain ([1]; After 30 min., Table 5) [% ID/g]	Radioactive distribution per unit weight of brain ([1]; After 60 min., Table 5) [% ID/g]	Radioactive distribution per unit weight of brain ([1]; After 2 min., Table 7) [% ID/g]	Radioactive distribution per unit weight of brain ([1]; After 5 min., Table 7) [% ID/g]	Radioactive distribution per unit weight of brain ([1]; After 30 min., Table 7) [% ID/g]	Radioactive distribution per unit weight of brain ([1]; After 60 min., Table 7) [% ID/g]	Substance	Radioactivity of the glass fiber filter versus amyloid non-added group [2]	Radioactivity of the glass fiber filter versus amyloid non-added group [3]
0.90	0.52	0.06	0.01					2-[4′-(2″-hydroxyethoxy)phenyl]-6-[^123I]iodoimidazo[1,2-a]pyridine [Compound 1]	all high compared to the group without amyloid suspension	all high compared to the group without amyloid suspension
0.89	0.66	0.13	0.04					2-(4′-ethoxyphenyl)-6-[^123I]iodoimidazo[1,2-a]pyridine [Compound 2]		
				0.81	0.56	0.07	0.02	2-[4′-(3″-hydroxypropoxy)phenyl]-6-[^123I]iodoimidazo[1,2-a]pyridine [Compound 6]	all high compared to the group without amyloid suspension	all high compared to the group without amyloid suspension
